Laboratory results published in US20240158412A1 (Faxian Therapeutics, LLC, priority 2021, published 2024).

Biological target: USP7 (Homo sapiens, UniProt Q93009)
Test: biochemical
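Note: fluorescence intensity readout of USP7 enzymatic activity, reaction incubated 90 min at room temperature.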

Sequence of USP7 (Q93009 whole entry): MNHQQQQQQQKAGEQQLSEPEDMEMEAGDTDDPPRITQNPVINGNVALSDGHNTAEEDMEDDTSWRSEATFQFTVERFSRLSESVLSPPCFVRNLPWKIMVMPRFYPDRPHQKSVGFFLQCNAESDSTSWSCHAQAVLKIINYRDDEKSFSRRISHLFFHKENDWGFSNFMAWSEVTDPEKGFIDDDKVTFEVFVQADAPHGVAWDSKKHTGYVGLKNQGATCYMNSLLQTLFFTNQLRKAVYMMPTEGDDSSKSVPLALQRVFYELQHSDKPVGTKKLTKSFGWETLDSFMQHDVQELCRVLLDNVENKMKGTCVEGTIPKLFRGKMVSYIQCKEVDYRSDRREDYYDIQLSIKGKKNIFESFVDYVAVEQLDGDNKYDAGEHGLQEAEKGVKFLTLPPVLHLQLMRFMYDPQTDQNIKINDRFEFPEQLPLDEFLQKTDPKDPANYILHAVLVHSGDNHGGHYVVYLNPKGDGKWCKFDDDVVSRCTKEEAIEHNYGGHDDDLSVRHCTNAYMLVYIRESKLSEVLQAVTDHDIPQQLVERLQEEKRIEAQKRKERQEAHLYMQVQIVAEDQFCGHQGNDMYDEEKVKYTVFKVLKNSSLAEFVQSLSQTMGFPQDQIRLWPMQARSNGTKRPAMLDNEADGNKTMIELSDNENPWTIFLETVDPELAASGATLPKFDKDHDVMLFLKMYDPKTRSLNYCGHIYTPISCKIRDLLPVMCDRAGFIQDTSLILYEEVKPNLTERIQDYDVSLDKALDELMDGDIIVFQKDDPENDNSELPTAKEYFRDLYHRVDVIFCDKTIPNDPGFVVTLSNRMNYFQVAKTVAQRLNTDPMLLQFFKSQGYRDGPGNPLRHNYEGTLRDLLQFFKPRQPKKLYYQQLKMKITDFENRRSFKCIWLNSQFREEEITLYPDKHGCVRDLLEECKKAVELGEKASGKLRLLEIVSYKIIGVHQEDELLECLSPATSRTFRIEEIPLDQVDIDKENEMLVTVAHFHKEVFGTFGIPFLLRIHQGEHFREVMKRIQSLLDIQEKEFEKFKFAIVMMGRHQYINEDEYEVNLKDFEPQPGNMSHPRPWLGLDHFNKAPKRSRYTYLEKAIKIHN

Structure (SMILES)	IC50
O=c1n(Cc2cc3nccc(-c4cc(Cl)cc5c4N([C@H]4CCNC4)CCC5)c3s2)nc2n1CCC2 [Example 68, (S)-2-((7-(6-chloro-1-(pyrrolidin-3-yl)-1,2,3,4-tetrahydroquinolin-8-yl)thieno[3,2-b]pyridin-2-yl)methyl)-6,7-dihydro-2H-pyrrolo[2,1-c][1,2,4]triazol-3(5H)-one]	< 10 nM
CN1CCC(=O)N(Cc2cc3nccc(-c4cc(Cl)cc5c4N([C@H]4CCNC4)CCC5)c3s2)C1=O [Example 76, (S)-3-((7-(6-chloro-1-(pyrrolidin-3-yl)-1,2,3,4-tetrahydroquinolin-8-yl)thieno[3,2-b]pyridin-2-yl)methyl)-1-methyldihydropyrimidine-2,4(1H,3H)-dione]	< 10 nM
CCN1CC(N2CCCc3cc(Cl)cc(-c4ccnc5cc(CN6C(=O)CCC6=O)sc45)c32)C1 [Example 4, 1-((7-(6-chloro-1-(1-ethylazetidin-3-yl)-1,2,3,4-tetrahydroquinolin-8-yl)thieno[3,2-b]pyridin-2-yl)methyl)pyrrolidine-2,5-dione]	10 to 100 nM
N#Cc1cc2c(c(-c3ccnc4cc(Cn5c(=O)ccn(CC(F)(F)F)c5=O)sc34)c1)N([C@H]1CCNC1)CCC2 [Example 83, (S)-8-(2-((2,6-dioxo-3-(2,2,2-trifluoroethyl)-2,3-dihydropyrimidin-1(6H)-yl)methyl)thieno[3,2-b]pyridin-7-yl)-1-(pyrrolidin-3-yl)-1,2,3,4-tetrahydroquinoline-6-carbonitrile]	< 10 nM
N#Cc1cc2c(c(-c3ccnc4cc(Cn5c(=O)ccn(CC(F)(F)F)c5=O)sc34)c1)N([C@H]1CCN([C@H]3CC[C@@H]3O)C1)CCC2 (single isomer, unassigned) [Example 107b]	10 to 100 nM
O=c1ccn(CC(F)(F)F)c(=O)n1Cc1cc2nccc(-c3cc(Cl)cc4c3N([C@@H]3CCNC3)CCC4)c2s1 [Example 56, (R)-3-((7-(6-chloro-1-(pyrrolidin-3-yl)-1,2,3,4-tetrahydroquinolin-8-yl)thieno[3,2-b]pyridin-2-yl)methyl)-1-(2,2,2-trifluoroethyl)pyrimidine-2,4(1H,3H)-dione]	< 10 nM
N[C@H]1C[C@H](N2CCCc3cc(Cl)cc(-c4ccnc5cc(CN6C(=O)CCC6=O)sc45)c32)C1 (single isomer, unassigned) [Example 42b, trans-1-((7-(1-(3-aminocyclobutyl)-6-chloro-1,2,3,4-tetrahydroquinolin-8-yl)thieno[3,2-b]pyridin-2-yl)methyl)pyrrolidine-2,5-dione]	10 to 100 nM
CCN1CC[C@H](N2CCCc3cc(C#N)cc(-c4ccnc5cc(Cn6c(=O)ccn(CC(F)(F)F)c6=O)sc45)c32)C1 [Example 84, (S)-8-(2-((2,6-dioxo-3-(2,2,2-trifluoroethyl)-2,3-dihydropyrimidin-1(6H)-yl)methyl)thieno[3,2-b]pyridin-7-yl)-1-(1-ethylpyrrolidin-3-yl)-1,2,3,4-tetrahydroquinoline-6-carbonitrile]	< 10 nM
CC1(C)C2C(=O)N(Cc3cc4nccc(-c5cc(Cl)cc6c5N(C5CNC5)CCC6)c4s3)C(=O)C21 (stereo not drawn) [Example 14, 3-[[7-[1-(azetidin-3-yl)-6-chloro-3,4-dihydro-2H-quinolin-8-yl]thieno[3,2-b]pyridin-2-yl]methyl]-6,6-dimethyl-3-azabicyclo[3.1.0]hexane-2,4-dione]	10 to 100 nM
CN1C[C@@H](N2CCCc3cc(C#N)cc(-c4ccnc5cc(Cn6c(=O)ccn(C)c6=O)sc45)c32)CC1(C)C [Example 123, (S)-8-(2-((3-methyl-2,6-dioxo-2,3-dihydropyrimidin-1(6H)-yl)methyl)thieno[3,2-b]pyridin-7-yl)-1-(1,5,5-trimethylpyrrolidin-3-yl)-1,2,3,4-tetrahydroquinoline-6-carbonitrile]	< 10 nM
CC(C)(O)[C@H]1C[C@H](N2CCCc3cc(Cl)cc(-c4ccnc5cc(CN6C(=O)CCC6=O)sc45)c32)CN1 [Example 189, 1-((7-(6-chloro-1-((3S,5R)-5-(2-hydroxypropan-2-yl)pyrrolidin-3-yl)-1,2,3,4-tetrahydroquinolin-8-yl)thieno[3,2-b]pyridin-2-yl)methyl)pyrrolidine-2,5-dione]	< 10 nM
CO[C@H]1CNC[C@@H]1N1CCCc2cc(Cl)cc(-c3ccnc4cc(CN5C(=O)CCC5=O)sc34)c21 (single isomer, unassigned) [Example 97a]	101 to 1000 nM
C[C@]1(CO)C[C@H](N2CCCc3cc(Cl)cc(-c4cc[n+]([O-])c5cc(CN6C(=O)CCC6=O)sc45)c32)CN1 [Example 208, 7-(6-chloro-1-((3S,5R)-5-(hydroxymethyl)-5-methylpyrrolidin-3-yl)-1,2,3,4-tetrahydroquinolin-8-yl)-2-((2,5-dioxopyrrolidin-1-yl)methyl)thieno[3,2-b]pyridine 4-oxide]	< 10 nM
CC(C)c1cnn(Cc2cc3nccc(-c4cc(C#N)cc5c4N([C@@H]4CNC(C)(C)C4)CCC5)c3s2)c(=O)c1 [Example 129, (S)-1-(5,5-dimethylpyrrolidin-3-yl)-8-(2-((4-isopropyl-6-oxopyridazin-1(6H)-yl)methyl)thieno[3,2-b]pyridin-7-yl)-1,2,3,4-tetrahydroquinoline-6-carbonitrile]	< 10 nM
O=C1CCC(=O)N1Cc1cc2nccc(-c3cc(Cl)cc4c3N([C@H]3CNC5(CCC5)C3)C[C@@H]3C[C@H]43)c2s1 [Example 165b, 1-((7-((1aR,7bS)-6-chloro-3-((R)-5-azaspiro[3.4]octan-7-yl)-1a,2,3,7b-tetrahydro-1H-cyclopropa[c]quinolin-4-yl)thieno[3,2-b]pyridin-2-yl)methyl)pyrrolidine-2,5-dione]	101 to 1000 nM
O=C1C2CC2C(=O)N1Cc1cc2nccc(-c3cc(Cl)cc4c3N([C@H]3CNC(CO)(CO)C3)CCO4)c2s1 (single isomer, unassigned) [Example 212a]	< 10 nM
CC(C)(C)c1cnn(Cc2cc3nccc(-c4cc(C#N)cc5c4N([C@H]4CN[C@@H](CO)C4)C[C@@H]4C[C@H]54)c3s2)c(=O)c1 (single isomer, unassigned) [Example 193a]	> 1000 nM
CC1(C)C2C(=O)N(Cc3cc4nccc(-c5cc(Cl)cc6c5N([C@@H]5CNC7(CCC7)C5)CCC6)c4s3)C(=O)C21 (stereo partly drawn) [Example 147, 3-((7-(6-chloro-1-((S)-5-azaspiro[3.4]octan-7-yl)-1,2,3,4-tetrahydroquinolin-8-yl)thieno[3,2-b]pyridin-2-yl)methyl)-6,6-dimethyl-3-azabicyclo[3.1.0]hexane-2,4-dione]	10 to 100 nM
O=c1ccn(CCC(F)F)c(=O)n1Cc1cc2nccc(-c3cc(Cl)cc4c3N([C@H]3CCNC3)CCC4)c2s1 [Example 67, (S)-3-((7-(6-chloro-1-(pyrrolidin-3-yl)-1,2,3,4-tetrahydroquinolin-8-yl)thieno[3,2-b]pyridin-2-yl)methyl)-1-(3,3-difluoropropyl)pyrimidine-2,4(1H,3H)-dione]	< 10 nM
C[C@H](c1cc2nccc(-c3cc(C#N)cc4c3N([C@H]3CCNC3)CCC4)c2s1)N1C(=O)CCC1=O (single isomer, unassigned) [Example 112a]	10 to 100 nM
CNC(=O)N1CC(N2CCCc3cc(Cl)cc(-c4ccnc5cc(CN6C(=O)CCC6=O)sc45)c32)C1 [Example 7, 3-[6-chloro-8-[2-[(2,5-dioxopyrrolidin-1-yl)methyl]thieno[3,2-b]pyridin-7-yl]-3,4-dihydro-2H-quinolin-1-yl]-N-methyl-azetidine-1-carboxamide]	101 to 1000 nM
